This is an account of results in patent publication US6277835A, “Method of tumor treatment” (priority 2000, dated 2001).

Structures are written as SMILES.

The test system of data set [1] is kidney (blood urea nitrogen). Briefly: Serum BUN assay. The format is in vivo, C3H mice. The note with it: day six. The text has this:
No anticoagulants were used.

In data set [2] the test system is peripheral white cell counts (bone marrow). Briefly: Peripheral white cell counts. The note with it: day 3; tirapazamine […]; cisplatin 10, 14 and 18 mg/kg. The method, then: Blood samples were taken from tail veins or by cardiac puncture. No anticoagulants were used. Peripheral white cell counts for individual mice were determined from 20 μl whole blood diluted in 0.280 ml 3% acetic acid. For serum BUN assays, blood from two mice was pooled, coagulated, vortexed, and centrifuged at 830 g for 15 minutes. After the serum was aspirated, BUN values were determined by a commercial clinical veterinary laboratory. Survival to 30 days was also recorded in another experiment.

Data set [3] concerns RIF-1 cells. Briefly: In vitro RIF-1 clonogenic cell survival under hypoxic conditions. The format is cell-based. The note with it: Mus musculus, RIF-1, 1 h, read-out: cell survival.
Protocol: (§1) For the studies on cells in vitro, RIF-1 cells were seeded into 60 mm glass petri dishes in Waymouth's medium supplemented with 15% fetal bovine serum at a concentration of 2×10^4 cells per dish. The experiments were performed 4 to 5 days later when there were approximately 10^6 cell per dish at the time of treatment. The growth medium was then replaced with 2 ml of medium without serum containing tirapazamine at a concentration of either 2 or 4 μg/ml. […] To achieve hypoxia, the dishes were loaded into specially fabricated, prewarmed aluminum gassing chambers which were placed in a shaking table and connected to a gassing manifold comprising a vacuum outlet line and inlet lines for air or nitrogen (+5% CO^2). […] After gassing, the chambers were sealed and incubated for one hour at 37 C.
For data set [4], the system named is RIF-1 cells.
Protocol: as §1
Data set [5] concerns FSaIIC Murine Fibrosarcoma. To be noted: cited from earlier work.

As to `N.N.[Cl][Pt][Cl]` [cisplatin], the BUN level entry is “approximately 30 mg/dl” in data set [1] (10 mg/kg cisplatin alone, similar to untreated); “approximately 30 mg/dl” in data set [1] (14 mg/kg cisplatin alone, similar to untreated); “about 80 mg/dl” in data set [1] (18 mg/kg cisplatin alone). For the same compound, in data set [2], the leukopenia entry was “mild leukopenia”.
For `Nc1n[n+]([O-])c2ccccc2[n+]1[O-]` [tirapazamine, 3-amino-1,2,4-benzotriazine 1,4-dioxide], in data set [3], the viability at 2 µg/mL is 30% and the viability at 4 µg/mL was 0.9%. In addition, the “cytotoxicity under aerobic conditions” value in data set [4] is recorded as “no cytotoxicity”. For the same compound, the “effect on tumor cells with carmustine” value in data set [5] (SR 4233 just before single-dose carmustine) is given as “marked dose enhancement leading to synergistic cytotoxic effects on tumor cells”. Besides, in data set [5] (SR 4233 just before single-dose cyclophosphamide), the “effect on tumor cells with cyclophosphamide” value is reported as “marked dose enhancement leading to synergistic cytotoxic effects on tumor cells”. Moreover, the “effect on tumor cells with melphalan” value in data set [5] (SR 4233 just before single-dose melphalan) is given as “marked dose enhancement leading to synergistic cytotoxic effects on tumor cells”. For the same compound, the effect with cisplatin result in data set [5] (SR 4233 just prior to single-dose cisplatin) is recorded as “additive effect, except at the highest dose level of cisplatin”.
